Reference: PubChem BioAssay AID1918958 (Molecular Pharmacology Branch, DTP, NCI, 2023)

System: NCI-H196 complex spheroid viability
Assay: Anticancer human tumor NCI-H196 cell line growth inhibition [LSD1];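 note: spheroids exposed to agents for 7 days before readout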;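 for viability, T/C: 100% = DMSO vehicle control viability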
Details: for IC50: curve of first compound; for viability, T/C: stronger effect = lower value; active = viability on the fitted dose curve at most 10% of control; inactive = the rest
Summary of the method: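 Complex spheroids of tumor cells with HUVEC and human MSCs, exposed to iadademstat combined with other agents. Each agent tested in half-log steps from near clinical Cmax (else 10 microM top), DMSO ≤0.25%.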

[1] = second compound 0.1 µM, first compound 0.000949 µM
[2] = second compound 0.1 µM, first compound 0.003 µM
[3] = second compound 0.1 µM, first compound 0.00949 µM
[4] = second compound 0.1 µM, first compound 0.03 µM
[5] = second compound 0.1 µM, first compound 0.0949 µM
[6] = second compound 0.1 µM, first compound 0.3 µM
[7] = second compound 0.316 µM, first compound 0.000949 µM
[8] = second compound 0.316 µM, first compound 0.003 µM
[9] = second compound 0.316 µM, first compound 0.00949 µM
[10] = second compound 0.316 µM, first compound 0.03 µM
[11] = second compound 0.316 µM, first compound 0.0949 µM
[12] = second compound 0.316 µM, first compound 0.3 µM
[13] = second compound 1 µM, first compound 0.000949 µM
[14] = second compound 1 µM, first compound 0.003 µM
[15] = second compound 1 µM, first compound 0.00949 µM
[16] = second compound 1 µM, first compound 0.03 µM
[17] = second compound 1 µM, first compound 0.0949 µM
[18] = second compound 1 µM, first compound 0.3 µM
[19] = second compound 3.16 µM, first compound 0.000949 µM
[20] = second compound 3.16 µM, first compound 0.003 µM
[21] = second compound 3.16 µM, first compound 0.00949 µM
[22] = second compound 3.16 µM, first compound 0.03 µM
[23] = second compound 3.16 µM, first compound 0.0949 µM
[24] = second compound 3.16 µM, first compound 0.3 µM
[25] = second compound 10 µM, first compound 0.000949 µM
[26] = second compound 10 µM, first compound 0.003 µM
[27] = second compound 10 µM, first compound 0.00949 µM
[28] = second compound 10 µM, first compound 0.03 µM
[29] = second compound 10 µM, first compound 0.0949 µM
[30] = second compound 10 µM, first compound 0.3 µM

CC[C@@]1(O)C(=O)OCc2c1cc1n(c2=O)Cc2cc3c(CN(C)C)c(O)ccc3nc2-1 + NC1CCC(NC2CC2c2ccccc2)CC1
inactive: viability, T/C (second compound 0.1 µM, first compound 0.000316 µM) 96.8% | viability, T/C (second compound 0.1 µM, first compound 0.001 µM) 96.4% | viability, T/C (second compound 0.1 µM, first compound 0.00316 µM) 103% | viability, T/C (second compound 0.1 µM, first compound 0.01 µM) 107% | viability, T/C (second compound 0.1 µM, first compound 0.0316 µM) 115% | viability, T/C (second compound 0.1 µM, first compound 0.1 µM) 94.1% | viability, T/C (second compound 0.316 µM, first compound 0.000316 µM) 96% | viability, T/C (second compound 0.316 µM, first compound 0.001 µM) 90.2% | viability, T/C (second compound 0.316 µM, first compound 0.00316 µM) 105% | viability, T/C (second compound 0.316 µM, first compound 0.01 µM) 118% | viability, T/C (second compound 0.316 µM, first compound 0.0316 µM) 110% | viability, T/C (second compound 0.316 µM, first compound 0.1 µM) 101% | viability, T/C (second compound 1 µM, first compound 0.000316 µM) 89.7% | viability, T/C (second compound 1 µM, first compound 0.001 µM) 105% | viability, T/C (second compound 1 µM, first compound 0.00316 µM) 98.6% | viability, T/C (second compound 1 µM, first compound 0.01 µM) 101% | viability, T/C (second compound 1 µM, first compound 0.0316 µM) 98.4% | viability, T/C (second compound 1 µM, first compound 0.1 µM) 93.7% | viability, T/C (second compound 3.16 µM, first compound 0.000316 µM) 88.7% | viability, T/C (second compound 3.16 µM, first compound 0.001 µM) 95.3% | viability, T/C (second compound 3.16 µM, first compound 0.00316 µM) 91% | viability, T/C (second compound 3.16 µM, first compound 0.01 µM) 100% | viability, T/C (second compound 3.16 µM, first compound 0.0316 µM) 111% | viability, T/C (second compound 3.16 µM, first compound 0.1 µM) 102% | viability, T/C (second compound 10 µM, first compound 0.000316 µM) 94.6% | viability, T/C (second compound 10 µM, first compound 0.001 µM) 89.7% | viability, T/C (second compound 10 µM, first compound 0.00316 µM) 98% | viability, T/C (second compound 10 µM, first compound 0.01 µM) 109% | viability, T/C (second compound 10 µM, first compound 0.0316 µM) 105% | viability, T/C (second compound 10 µM, first compound 0.1 µM) 95.3%
> 100 nM: IC50 (second compound 0.1 µM) | IC50 (second compound 0.316 µM) | IC50 (second compound 1 µM) | IC50 (second compound 3.16 µM) | IC50 (second compound 10 µM)

CCc1c2c(nc3ccc(O)cc13)-c1cc3c(c(=O)n1C2)COC(=O)[C@]3(O)CC + NC1CCC(NC2CC2c2ccccc2)CC1
active: viability, T/C [4] 3.31% | viability, T/C [5] 0.73% | viability, T/C [6] 1.14% | viability, T/C [10] 3.77% | viability, T/C [11] 1.18% | viability, T/C [12] 0.82% | viability, T/C [16] 2.51% | viability, T/C [17] 0.62% | viability, T/C [18] 0.86% | viability, T/C [22] 2% | viability, T/C [23] 0.56% | viability, T/C [24] 1.03% | viability, T/C [28] 3.63% | viability, T/C [29] 0.8% | viability, T/C [30] 0.85%
10.1 nM: IC50 (second compound 3.16 µM)
10 nM: IC50 (second compound 0.1 µM)
11.4 nM: IC50 (second compound 10 µM)
9.56 nM: IC50 (second compound 0.316 µM)
11 nM: IC50 (second compound 1 µM)
inactive: viability, T/C [1] 113% | viability, T/C [2] 104% | viability, T/C [3] 52.8% | viability, T/C [7] 123% | viability, T/C [8] 104% | viability, T/C [9] 52.5% | viability, T/C [13] 120% | viability, T/C [14] 111% | viability, T/C [15] 57.1% | viability, T/C [19] 109% | viability, T/C [20] 91.2% | viability, T/C [21] 55.3% | viability, T/C [25] 113% | viability, T/C [26] 98.7% | viability, T/C [27] 60.1%

COc1cc(C2c3cc4c(cc3C(OC3OC5COC(C)OC5C(O)C3O)C3COC(=O)C23)OCO4)cc(OC)c1O (stereo not given) + NC1CCC(NC2CC2c2ccccc2)CC1
> 3000 nM: IC50 (second compound 0.1 µM) | IC50 (second compound 0.316 µM) | IC50 (second compound 1 µM) | IC50 (second compound 3.16 µM) | IC50 (second compound 10 µM)
inactive: viability, T/C [3] 94.1% | viability, T/C [4] 97.2% | viability, T/C [5] 113% | viability, T/C [6] 104% | viability, T/C (second compound 0.1 µM, first compound 0.949 µM) 87.1% | viability, T/C (second compound 0.1 µM, first compound 3 µM) 59.7% | viability, T/C [9] 102% | viability, T/C [10] 90.1% | viability, T/C [11] 104% | viability, T/C [12] 104% | viability, T/C (second compound 0.316 µM, first compound 0.949 µM) 94.7% | viability, T/C (second compound 0.316 µM, first compound 3 µM) 66.1% | viability, T/C [15] 89.5% | viability, T/C [16] 105% | viability, T/C [17] 98.8% | viability, T/C [18] 103% | viability, T/C (second compound 1 µM, first compound 0.949 µM) 93.4% | viability, T/C (second compound 1 µM, first compound 3 µM) 70.3% | viability, T/C [21] 120% | viability, T/C [22] 91.2% | viability, T/C [23] 104% | viability, T/C [24] 110% | viability, T/C (second compound 3.16 µM, first compound 0.949 µM) 89.6% | viability, T/C (second compound 3.16 µM, first compound 3 µM) 55.9% | viability, T/C [27] 103% | viability, T/C [28] 91.9% | viability, T/C [29] 95.5% | viability, T/C [30] 96.3% | viability, T/C (second compound 10 µM, first compound 0.949 µM) 81.6% | viability, T/C (second compound 10 µM, first compound 3 µM) 59.1%

Nc1ccn(C2OC(CO)C(O)C2(F)F)c(=O)n1 (stereo not given) + NC1CCC(NC2CC2c2ccccc2)CC1
inactive: viability, T/C [1] 104% | viability, T/C [2] 98.6% | viability, T/C [3] 85.9% | viability, T/C [4] 65.1% | viability, T/C [5] 61.8% | viability, T/C [6] 68.1% | viability, T/C [7] 96.8% | viability, T/C [8] 99.3% | viability, T/C [9] 93.7% | viability, T/C [10] 69.2% | viability, T/C [11] 59.2% | viability, T/C [12] 70.3% | viability, T/C [13] 97.3% | viability, T/C [14] 96.7% | viability, T/C [15] 85% | viability, T/C [16] 63.9% | viability, T/C [17] 64.2% | viability, T/C [18] 63.5% | viability, T/C [19] 99.7% | viability, T/C [20] 103% | viability, T/C [21] 88.2% | viability, T/C [22] 63.8% | viability, T/C [23] 63.8% | viability, T/C [24] 68.3% | viability, T/C [25] 94.2% | viability, T/C [26] 108% | viability, T/C [27] 86.5% | viability, T/C [28] 75.6% | viability, T/C [29] 65% | viability, T/C [30] 67.4%
> 300 nM: IC50 (second compound 0.1 µM) | IC50 (second compound 0.316 µM) | IC50 (second compound 1 µM) | IC50 (second compound 3.16 µM) | IC50 (second compound 10 µM)
